Measurements as given in the NIST ThermoML archive (doi:10.1021/je700521t).
± gives the expanded uncertainty stated by the source.

Legend:
[1] = refractive index (Na D-line) (dimensionless); conditions: 101.33 kPa, Liquid
[2] = 101.33 kPa, Liquid; for viscosity: Falling or rolling sphere viscometry

CCCCn1cc[n+](C)c1.[O-][Cl+3]([O-])([O-])[O-] [1-butyl-3-methylimidazolium perchlorate]
Conditions | refractive index, [1] | viscosity, [2] [mPa·s]
283.15 K | 1.4763 ± 0.0012 | 466.36 ± 37
288.15 K | 1.4751 ± 0.0012 | 330.8 ± 23
293.15 K | 1.474 ± 0.0012 | 241.56 ± 14
298.15 K | 1.4725 ± 0.0012 | 180.26 ± 9.5
303.15 K | 1.4712 ± 0.0012 | 137.85 ± 7
308.15 K | 1.4696 ± 0.0012 | 107.28 ± 5.5
313.15 K | 1.4685 ± 0.0012 | 85.75 ± 4.8
318.15 K | 1.4667 ± 0.0012 | 69.52 ± 4.5
323.15 K | 1.4655 ± 0.0012 | 57.22 ± 4.3
328.15 K | 1.4642 ± 0.0012 | 47.78 ± 4.2
333.15 K | 1.4627 ± 0.0012 | 39.9 ± 4.1
338.15 K | 1.4615 ± 0.0012 | 34.14 ± 4.1
343.15 K | 1.4602 ± 0.0012 | 29.49 ± 4.1
348.15 K | 1.459 ± 0.0012 | 25.74 ± 4.1
353.15 K | 1.4577 ± 0.0012 | 22.64 ± 4

[2], Vibrating tube method
Conditions | mass density [kg/m3]
283.15 K | 1263.5 ± 8.7
288.15 K | 1259.9 ± 8.6
293.15 K | 1256.2 ± 8.6
298.15 K | 1252.7 ± 8.5
303.15 K | 1249.2 ± 8.5
308.15 K | 1245.7 ± 8.5
313.15 K | 1242.2 ± 8.4
318.15 K | 1238.8 ± 8.4
323.15 K | 1235.3 ± 8.3
328.15 K | 1231.9 ± 8.3
333.15 K | 1228.4 ± 8.2
338.15 K | 1225 ± 8.2
343.15 K | 1221.6 ± 8.1
348.15 K | 1218.2 ± 8.1
353.15 K | 1214.8 ± 8

CCCCCCCC[n+]1ccn(C)c1.F[B-](F)(F)F [1-methyl-3-octylimidazolium tetrafluoroborate]
Conditions | mass density, [2] [kg/m3] | refractive index, [1] | viscosity, [2] [mPa·s]
283.15 K | 1124.9 ± 1.7 | 1.4363 ± 0.0008 | 1037 ± 110
288.15 K | 1121.4 ± 1.7 | 1.435 ± 0.0008 | 718.75 ± 66
293.15 K | 1117.9 ± 1.6 | 1.4336 ± 0.0008 | 462.9 ± 36
298.15 K | 1114.4 ± 1.6 | 1.4322 ± 0.0008 | 334.17 ± 22
303.15 K | 1110.9 ± 1.6 | 1.431 ± 0.0008 | 246.18 ± 14
308.15 K | 1107.5 ± 1.6 | 1.4288 ± 0.0008 | 191.95 ± 9.3
313.15 K | 1104.1 ± 1.6 | 1.4271 ± 0.0008 | 147.92 ± 6.7
318.15 K | 1100.7 ± 1.5 | 1.426 ± 0.0008 | 116.38 ± 5.3
323.15 K | 1097.3 ± 1.5 | 1.425 ± 0.0008 | 91.95 ± 4.5
328.15 K | 1093.9 ± 1.5 | 1.4235 ± 0.0008 | 74.79 ± 4.2
333.15 K | 1090.6 ± 1.5 | 1.4222 ± 0.0008 | 60.95 ± 4.1
338.15 K | 1087.2 ± 1.5 | 1.421 ± 0.0008 | 50.88 ± 4
343.15 K | 1083.9 ± 1.5 | 1.4195 ± 0.0008 | 42.06 ± 4
348.15 K | 1080.5 ± 1.5 | 1.418 ± 0.0008 | 35.78 ± 4
353.15 K | 1077.2 ± 1.4 | 1.4167 ± 0.0008 | 30.11 ± 4
358.15 K | 1073.8 ± 1.4 | 1.4155 ± 0.0008 | 25.87 ± 4
363.15 K | 1070.5 ± 1.4 | 1.4142 ± 0.0008 | 21.57 ± 4
